In US20240018153A1, “BENZENESULFONAMIDE DERIVATIVES AND USES THEREOF” (2692372 ONTARIO, INC., priority 2020, published 2024):

Columns and labels:
[1] = molecular target: EGFR (Homo sapiens (Human), UniProt P00533); assay: HTRF KinEASE-TK kinase assay, EGFR; format: biochemical; conditions: 3 h preincubation; for remaining activity at 1 µM: 1 μM compound, read-out: % EGFR Remaining activity vs DMSO (1 μM, 3 h); for remaining activity at 10 µM: 10 μM compound, read-out: % EGFR Remaining activity vs DMSO (10 μM, 3 h); for IC50: dose response, read-out: EGFR Inhibition IC50
In short: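 HTRF KinEASE-TK format: EGFR pre-incubated with compound at 1 and 10 uM final (0.5% DMSO) in kinase buffer with 2 mM MnCl2, 5 mM MgCl2 and 1 mM TCEP.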

[2] = molecular target: T1, BTK (Homo sapiens (Human), UniProt Q06187); assay: HTRF KinEASE-TK kinase assay, BTK; format: biochemical; conditions: 3 h preincubation; for remaining activity at 1 µM: 1 μM compound, read-out: % BTK Remaining activity vs DMSO (1 μM, 3 h); for remaining activity at 10 µM: 10 μM compound, read-out: % BTK Remaining activity vs DMSO (10 μM, 3 h)
In short: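 BTK activity in HTRF KinEASE-TK format, buffer containing 10 mM MnCl2, 5 mM MgCl2, 1 uM ATPγS and 1 mM TCEP; 45 min reaction with biotinylated substrate and ATP.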

[3] = molecular target: T1, BTK; assay: Ramos RA1 cell lysis and immunoassay, phospho-BTK (Y223) inhibition; format: cell-based; design: key: X: BTK bound and autophosphoration of BTK inhibited in cells; conditions: RAMOS cells, compound concentration 1 μM
Experimental: Ramos RA 1 cells (ATCC) were cultured in RPMI-1640 media (Wisent) supplemented with 10% heat-inactivated FBS and 1% penicillin/streptomycin. Cells were seeded in 6-well plates at 1.71×10^6 cells/well and incubated at 37° C., 5% CO2 for 16 hours. Cells were treated with compound at the indicated concentrations or DMSO alone and incubated at 37° C., 5% CO2 for 24 hours. Cell suspensions were centrifugated at 1,400-1,600 RPM for 5 minutes at room temperature and supernatants were discarded. Cell pellets were resuspended with 1× RIPA buffer (Millipore) and incubated on ice for 15 minutes. Protein lysates were extracted by centrifugating at 20,000 RPM for 20 minutes at 4° C. Proteins were separated and total BTK protein levels were quantified by Simple Western Immunoassay (ProteinSimple) using the 12-230 kDa Jess Separation Module according to the manufacturer's protocol, using a protein concentration of 0.25 μg/μl and antibodies targeting BTK (clone #D3H5, Cell Signalling) and β-Actin (clone #AC-15, Santa Cruz) diluted to 1:400 and 1:10, respectively, where the latter was used as a loading control. An equal ratio of rabbit and mouse HRP-conjugated secondary antibodies was used for detection. BTK protein levels were quantified relative to S-Actin loading levels and subsequently normalized to the DMSO control. Phosphorylated BTK levels were quantified using the Protein Normalization Assay Module for Jess (ProteinSimple) according to the manufacturer's protocol, using a protein concentration of 1.5 μg/μl and an antibody targeting pBTK (Y223) (Cell Signalling) diluted to 1:50. Phosphorylated BTK levels were quantified relative to the Protein Normalization Reagent and subsequently normalized to the DMSO control.

[4] = molecular target: BMX (Homo sapiens (Human), UniProt P51813); assay: HTRF KinEASE-TK kinase assay, BMX; format: biochemical; conditions: for remaining activity at 1 µM: 1 uM compound; for remaining activity at 1 µM / remaining activity at 10 µM: 3 h preincubation; for remaining activity at 10 µM: 10 uM compound; for IC50: dose response
In short: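 Purchased BMX (0.333 ng/ul, 3.03 nM) was preincubated with or without inhibitor for 3 h at room temperature, then biotinylated substrate and ATP were added. Reactions were stopped with EDTA-containing buffer holding 31.25 nM SA-XL665 and Eu-antibody, and after 60 min phosphorylation was read as the HTRF 665/620 nm emission ratio.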

[5] = molecular target: JAK3 (Homo sapiens (Human), UniProt P52333); assay: HTRF KinEASE-TK kinase assay, JAK3; format: biochemical; conditions: for remaining activity at 1 µM: read-out: % JAK3 Remaining activity vs DMSO (1 μM, 3 h); for remaining activity at 10 µM: read-out: % JAK3 Remaining activity vs DMSO (10 μM, 3 h)
In short: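 Promega JAK3 at 0.21 nM was preincubated with inhibitor for 3 h at room temperature before biotinylated substrate and ATP were added. The reaction was stopped with EDTA detection buffer containing 31.25 nM SA-XL665 and Eu-antibody. After 60 min, the HTRF 665/620 nm emission ratio reflected substrate phosphorylation.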

[6] = molecular target: FGFR4 (Homo sapiens (Human), UniProt P22455); assay: HTRF KinEASE-TK kinase assay, FGFR4; format: biochemical; conditions: for remaining activity at 1 µM: read-out: % FGFR4 Remaining activity vs DMSO (1 μM, 3 h); for remaining activity at 10 µM: read-out: % FGFR4 Remaining activity vs DMSO (10 μM, 3 h)
In short: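 Promega FGFR4 at 0.333 ng/ul (5.12 nM) preincubated with or without inhibitor for 3 h at room temperature, then reaction started with biotinylated substrate and ATP. Stopped with EDTA detection buffer containing 31.25 nM SA-XL665 and Eu-antibody; after 60 min, HTRF 665/620 nm ratio read as substrate phosphorylation.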

[7] = molecular target: RIPK2 (Homo sapiens (Human), UniProt O43353); assay: In vitro RIPK2 inhibition; format: biochemical; conditions: for remaining activity at 1 µM: read-out: % RIPK2 Remaining activity vs DMSO (1 μM, 3 h); for remaining activity at 10 µM: read-out: % RIPK2 Remaining activity vs DMSO (10 μM, 3 h)
Chain of RIPK2 (O43353 whole entry, species assumed): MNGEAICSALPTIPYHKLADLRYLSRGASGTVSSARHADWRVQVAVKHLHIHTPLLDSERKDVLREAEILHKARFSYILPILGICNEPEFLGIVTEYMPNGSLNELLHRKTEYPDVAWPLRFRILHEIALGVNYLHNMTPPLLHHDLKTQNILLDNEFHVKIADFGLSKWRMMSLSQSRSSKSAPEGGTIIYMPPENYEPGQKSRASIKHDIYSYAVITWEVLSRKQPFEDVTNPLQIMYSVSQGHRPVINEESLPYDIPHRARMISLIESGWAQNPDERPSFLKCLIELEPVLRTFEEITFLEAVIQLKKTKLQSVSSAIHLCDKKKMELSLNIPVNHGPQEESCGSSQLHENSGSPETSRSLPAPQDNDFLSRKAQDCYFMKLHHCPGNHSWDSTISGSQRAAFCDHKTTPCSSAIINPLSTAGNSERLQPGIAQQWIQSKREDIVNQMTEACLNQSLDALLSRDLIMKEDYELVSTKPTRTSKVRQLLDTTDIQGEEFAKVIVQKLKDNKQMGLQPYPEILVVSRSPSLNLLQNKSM

T1 sequence (Q06187 whole entry): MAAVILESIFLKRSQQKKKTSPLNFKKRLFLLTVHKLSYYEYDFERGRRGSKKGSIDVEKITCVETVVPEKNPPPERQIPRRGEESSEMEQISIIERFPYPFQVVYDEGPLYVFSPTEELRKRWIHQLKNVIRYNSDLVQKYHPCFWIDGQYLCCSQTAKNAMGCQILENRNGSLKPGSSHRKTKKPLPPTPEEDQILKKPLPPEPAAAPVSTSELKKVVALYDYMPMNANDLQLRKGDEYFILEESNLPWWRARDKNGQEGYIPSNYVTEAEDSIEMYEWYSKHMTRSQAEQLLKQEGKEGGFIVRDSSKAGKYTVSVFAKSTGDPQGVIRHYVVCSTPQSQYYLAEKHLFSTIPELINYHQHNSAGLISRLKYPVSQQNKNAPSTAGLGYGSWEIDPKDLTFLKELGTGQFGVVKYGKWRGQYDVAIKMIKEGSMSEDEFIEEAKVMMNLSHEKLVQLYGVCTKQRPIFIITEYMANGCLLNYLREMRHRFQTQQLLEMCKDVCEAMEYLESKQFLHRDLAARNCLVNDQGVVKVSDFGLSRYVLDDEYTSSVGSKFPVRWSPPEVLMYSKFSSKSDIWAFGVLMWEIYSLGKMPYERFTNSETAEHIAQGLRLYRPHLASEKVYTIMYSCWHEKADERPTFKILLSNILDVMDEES
Chain of EGFR (P00533 25-1210): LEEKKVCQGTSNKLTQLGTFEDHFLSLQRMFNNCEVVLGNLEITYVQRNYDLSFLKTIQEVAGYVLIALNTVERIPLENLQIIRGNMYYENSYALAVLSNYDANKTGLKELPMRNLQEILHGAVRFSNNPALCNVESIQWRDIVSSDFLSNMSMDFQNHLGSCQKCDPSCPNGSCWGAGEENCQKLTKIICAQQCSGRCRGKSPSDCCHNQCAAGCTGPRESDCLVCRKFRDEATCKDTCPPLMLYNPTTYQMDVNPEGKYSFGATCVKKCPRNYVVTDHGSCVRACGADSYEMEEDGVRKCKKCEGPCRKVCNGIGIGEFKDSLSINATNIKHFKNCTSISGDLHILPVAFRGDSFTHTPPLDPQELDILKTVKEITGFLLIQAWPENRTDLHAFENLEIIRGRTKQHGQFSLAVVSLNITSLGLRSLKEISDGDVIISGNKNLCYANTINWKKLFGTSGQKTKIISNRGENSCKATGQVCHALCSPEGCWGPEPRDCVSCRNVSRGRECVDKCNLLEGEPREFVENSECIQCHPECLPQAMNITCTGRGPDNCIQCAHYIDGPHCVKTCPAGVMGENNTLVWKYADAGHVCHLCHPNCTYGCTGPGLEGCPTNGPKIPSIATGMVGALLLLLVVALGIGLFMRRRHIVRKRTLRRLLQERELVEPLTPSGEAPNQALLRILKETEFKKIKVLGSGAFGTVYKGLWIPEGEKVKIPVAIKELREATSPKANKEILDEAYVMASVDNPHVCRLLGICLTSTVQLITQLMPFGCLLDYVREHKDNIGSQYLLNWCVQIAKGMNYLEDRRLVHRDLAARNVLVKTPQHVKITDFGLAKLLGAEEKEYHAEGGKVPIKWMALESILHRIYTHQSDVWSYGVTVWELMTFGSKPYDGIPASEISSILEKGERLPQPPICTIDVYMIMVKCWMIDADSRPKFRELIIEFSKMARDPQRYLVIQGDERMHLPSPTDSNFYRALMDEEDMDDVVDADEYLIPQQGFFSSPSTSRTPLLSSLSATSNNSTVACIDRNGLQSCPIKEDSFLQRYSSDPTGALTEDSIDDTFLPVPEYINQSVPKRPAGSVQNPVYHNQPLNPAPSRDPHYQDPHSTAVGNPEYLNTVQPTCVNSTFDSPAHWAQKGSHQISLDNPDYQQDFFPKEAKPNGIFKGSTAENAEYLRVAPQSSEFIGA
Chain of BMX (P51813 whole entry): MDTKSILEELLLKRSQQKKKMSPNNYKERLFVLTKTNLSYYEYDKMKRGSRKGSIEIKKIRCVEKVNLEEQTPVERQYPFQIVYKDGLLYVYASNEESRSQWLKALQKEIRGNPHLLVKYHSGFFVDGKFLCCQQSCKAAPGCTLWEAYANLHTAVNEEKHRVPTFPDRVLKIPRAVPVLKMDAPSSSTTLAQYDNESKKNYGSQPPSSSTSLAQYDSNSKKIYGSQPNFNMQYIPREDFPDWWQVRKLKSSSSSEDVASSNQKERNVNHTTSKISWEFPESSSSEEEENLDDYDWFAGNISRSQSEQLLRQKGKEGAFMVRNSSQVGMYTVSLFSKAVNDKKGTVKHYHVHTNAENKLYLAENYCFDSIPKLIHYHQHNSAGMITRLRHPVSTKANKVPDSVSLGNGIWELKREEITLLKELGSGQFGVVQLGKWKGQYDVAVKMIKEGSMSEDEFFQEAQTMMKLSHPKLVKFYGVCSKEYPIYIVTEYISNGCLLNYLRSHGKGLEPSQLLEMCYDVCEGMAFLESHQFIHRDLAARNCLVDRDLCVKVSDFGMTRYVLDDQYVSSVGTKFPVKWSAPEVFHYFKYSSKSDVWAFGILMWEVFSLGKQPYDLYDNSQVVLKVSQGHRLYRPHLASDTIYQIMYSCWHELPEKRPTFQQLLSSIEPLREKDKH
Chain of JAK3 (P52333 781-1124): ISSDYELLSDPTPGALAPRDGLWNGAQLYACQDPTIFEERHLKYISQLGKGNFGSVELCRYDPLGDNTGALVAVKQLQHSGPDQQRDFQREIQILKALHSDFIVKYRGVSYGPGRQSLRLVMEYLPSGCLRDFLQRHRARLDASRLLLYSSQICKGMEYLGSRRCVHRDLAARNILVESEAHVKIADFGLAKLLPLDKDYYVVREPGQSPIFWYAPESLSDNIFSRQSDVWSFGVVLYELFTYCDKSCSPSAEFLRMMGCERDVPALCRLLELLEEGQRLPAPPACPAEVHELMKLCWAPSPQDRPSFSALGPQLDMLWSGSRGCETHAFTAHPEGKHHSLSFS
Chain of FGFR4 (P22455 22-802): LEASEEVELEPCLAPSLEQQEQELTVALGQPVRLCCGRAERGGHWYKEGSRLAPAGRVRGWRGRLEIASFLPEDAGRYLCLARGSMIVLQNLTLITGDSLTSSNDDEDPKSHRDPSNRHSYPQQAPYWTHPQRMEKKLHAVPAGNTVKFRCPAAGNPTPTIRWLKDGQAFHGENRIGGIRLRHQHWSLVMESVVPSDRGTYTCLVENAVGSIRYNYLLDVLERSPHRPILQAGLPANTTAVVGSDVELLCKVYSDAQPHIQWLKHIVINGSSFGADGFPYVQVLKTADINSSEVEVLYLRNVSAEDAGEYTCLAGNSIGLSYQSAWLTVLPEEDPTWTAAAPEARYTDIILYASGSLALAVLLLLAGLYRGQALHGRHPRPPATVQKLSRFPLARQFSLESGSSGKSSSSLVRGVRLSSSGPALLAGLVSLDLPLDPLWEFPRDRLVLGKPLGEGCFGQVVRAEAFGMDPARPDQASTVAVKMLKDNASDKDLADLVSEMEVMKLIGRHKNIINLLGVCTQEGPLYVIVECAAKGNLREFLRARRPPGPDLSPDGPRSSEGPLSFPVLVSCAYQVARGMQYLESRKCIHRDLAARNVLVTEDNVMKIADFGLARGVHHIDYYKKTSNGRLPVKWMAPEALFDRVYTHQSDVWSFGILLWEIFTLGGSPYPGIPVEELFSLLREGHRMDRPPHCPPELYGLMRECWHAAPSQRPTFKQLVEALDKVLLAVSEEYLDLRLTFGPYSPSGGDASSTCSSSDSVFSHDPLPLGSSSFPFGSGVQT

SMILES	remaining activity at 1 µM [1] [%]	remaining activity at 10 µM [1] [%]	remaining activity at 1 µM [2] [%]	remaining activity at 10 µM [2] [%]	pBTK inhibition (RAMOS, 24 h) [3]	remaining activity at 1 µM [4] [%]	remaining activity at 10 µM [4] [%]	remaining activity at 1 µM [5] [%]	remaining activity at 10 µM [5] [%]	remaining activity at 1 µM [6] [%]	remaining activity at 10 µM [6] [%]	IC50 [1] [nM]	IC50 ([6]; dose response) [nM]	IC50 [4] [nM]	IC50 ([5]; dose response) [nM]	remaining activity at 1 µM [7] [%]	remaining activity at 10 µM [7] [%]
COCCOc1ccc(Nc2ncc(F)c(Nc3cccc(NC(=O)c4c(F)c(F)c(F)c(F)c4[S@+](C)[O-])c3)n2)cc1 (stereo in doubt) [Compound I-62, 2,3,4,5-tetrafluoro-N-(3-((5-fluoro-2-((4-(2-methoxyethoxy)phenyl)amino)pyrimidin-4-yl)amino)phenyl)-6-(methylsulfinyl)benzamide]	> 90	50 to 90	< 50	< 50	X	< 50	< 50	> 90	< 50	< 50	< 50	–	–	–	–	–	–
COCCOc1ccc(Nc2ncc(F)c(Nc3cccc(Nc4c(F)c(F)c(F)c(F)c4[S@+](C)[O-])c3)n2)cc1 (stereo in doubt) [Compound I-63, 5-fluoro-N^2-(4-(2-methoxyethoxy)phenyl)-N^4-(3-((2,3,4,5-tetrafluoro-6-(methylsulfinyl)phenyl)amino)phenyl)pyrimidine-2,4-diamine]	> 90	> 90	< 50	50 to 90	X	< 50	< 50	> 90	50 to 90	> 90	> 90	–	–	–	–	–	–
CS(=O)(=O)c1c(F)c(F)c(F)c(F)c1Nc1cc2c(Nc3ccc(F)c(Cl)c3)ncnc2cc1O[C@H]1CCOC1 [Compound I-2, (S)—N^4-(3-chloro-4-fluorophenyl)-N^6-(2,3,4,5-tetrafluoro-6-(methylsulfonyl)phenyl)-7-((tetrahydrofuran-3-yl)oxy)quinazoline-4,6-diamine]	< 50	< 50	> 90	50 to 90	–	50 to 90	> 90	50 to 90	< 50	> 90	50 to 90	< 1000	–	–	–	–	–
C[S+]([O-])c1c(F)c(F)c(F)c(F)c1C(=O)Nc1cc2c(Nc3ccc(F)c(Cl)c3)ncnc2cc1OC1CCOC1 (centres unmarked) [Compound I-3]	< 50	< 50	50 to 90	50 to 90	X	50 to 90	> 90	> 90	> 90	> 90	> 90	< 1000	–	–	–	–	–
C[S+]([O-])c1c(F)c(F)c(F)c(F)c1Nc1cc2c(Nc3ccc(F)c(Cl)c3)ncnc2cc1O[C@H]1CCOC1 (stereo partly drawn) [Compound I-4, N^4-(3-chloro-4-fluorophenyl)-N^6-(2,3,4,5-tetrafluoro-6-(methylsulfinyl)phenyl)-7-(((S)-tetrahydrofuran-3-yl)oxy)quinazoline-4,6-diamine]	< 50	< 50	> 90	< 50	–	> 90	> 90	> 90	> 90	> 90	> 90	< 1000	–	–	–	–	–
CS(=O)(=O)c1c(F)c(F)c(F)c(F)c1C(=O)Nc1cc2c(Nc3ccc(F)c(Cl)c3)ncnc2cc1O[C@H]1CCOC1 [Compound I-5, (S)—N-(4-((3-chloro-4-fluorophenyl)amino)-7-((tetrahydrofuran-3-yl)oxy)quinazolin-6-yl)-2,3,4,5-tetrafluoro-6-(methylsulfonyl)benzamide]	< 50	< 50	< 50	< 50	X	50 to 90	< 50	50 to 90	< 50	> 90	> 90	< 1000	–	–	–	–	–
Nc1ncnc2c1c(-c1ccc(Oc3ccccc3)cc1)nn2[C@@H]1CCN(S(=O)(=O)c2c(F)c(F)c(F)c(F)c2OCF)C1 [Compound I-24, (R)-3-(4-phenoxyphenyl)-1-(1-((2,3,4,5-tetrafluoro-6-(fluoromethoxy)phenyl)sulfonyl)pyrrolidin-3-yl)-1H-pyrazolo[3,4-d]pyrimidin-4-amine]	> 90	> 90	< 50	< 50	X	< 50	< 50	> 90	50 to 90	< 50	< 50	–	> 1000	–	–	–	–
CN(C)S(=O)(=O)c1c(F)c(F)c(F)c(F)c1C(=O)NCCNc1ncnc2[nH]ccc12 [Compound I-47, N-(2-((7H-pyrrolo[2,3-d]pyrimidin-4-yl)amino)ethyl)-2-(N,N-dimethylsulfamoyl)-3,4,5,6-tetrafluorobenzamide]	> 90	> 90	< 50	< 50	–	< 50	< 50	< 50	< 50	50 to 90	50 to 90	–	–	< 1000	< 1000	< 50	< 50
NS(=O)(=O)c1c(F)c(F)c(F)c(F)c1C(=O)NCCNc1ncnc2[nH]ccc12 [Compound I-48]	> 90	> 90	< 50	< 50	–	< 50	< 50	50 to 90	< 50	> 90	50 to 90	–	–	< 1000	–	< 50	< 50
